Our source for the inhibition and IC50 values is patent publication US20090291971A1, “HETEROARYL ETHERS AND PROCESSES FOR THEIR PREPARATION” (Wyeth, priority 2007, published 2009).

Common to all, as to type: biochemical
For one assay, the target named is T1, human TOR (FLAG-TOR) (Homo sapiens, UniProt P42345).
T1 construct: FLAG
Nature of the assay: mTOR Enzyme Assay (DELFIA). As to the method: The routine human TOR assays with purified enzyme were performed in 96-well plates by DELFIA format as follows. Enzymes were first diluted in kinase assay buffer (10 mM Hepes (pH 7.4), 50 mM NaCl, 50 mM β-glycerophosphate, 10 mM MnCl2, 0.5 mM DTT, 0.25 μM microcystin LR, and 100 μg/mL BSA). To each well, 12 μL of the diluted enzyme were mixed briefly with 0.5 μL test inhibitor or control vehicle dimethylsulfoxide (DMSO). The kinase reaction was initiated by adding 12.5 μL kinase assay buffer containing ATP and His6-S6K to give a final reaction volume of 25 μL containing 800 ng/mL FLAG-TOR, 100 μM ATP and 1.25 μM His6-S6K. The reaction plate was incubated for 2 hours (linear at 1-6 hours) at room temperature with gentle shaking and then terminated by adding 25 μL Stop buffer (20 mM Hepes (pH 7.4), 20 mM EDTA, 20 mM EGTA). The DELFIA detection of the phosphorylated (Thr-389) His6-S6K was performed at room temperature using a monoclonal anti-P(T389)-p70S6K antibody (1A5, Cell Signaling) labeled with Europium-N-1-ITC (Eu) (10.4 Eu per antibody, PerkinElmer). The DELFIA Assay buffer and Enhancement solution were purchased from PerkinElmer. 45 μL of the terminated kinase reaction mixture was transferred to a MaxiSorp plate (Nunc) containing 55 μL PBS. […] L of DELFIA Enhancement solution was added to each well and the plates were read in a PerkinElmer Victor model plate reader. […]

Another assay concerns the target PI3K alpha (Homo sapiens, UniProt P42336). Put plainly: PI3 Kinase Assay (PI3K alpha). As to the method:
(§1) PI3-Kinase reactions were performed in […], pH 7, […], and 25 μM ATP, with diC8-PI(4,5)P2 (Echelon, Salt Lake City Utah) as substrate. Nunc 384 well black polypropylene fluorescent plates were used for PI3K assays. Reactions were quenched by the addition of EDTA to a final concentration of […]. Final reaction volumes were […]. For evaluation of PI 3-K inhibitors, 5 ng of enzyme and 2.5 μM of substrate was used per […] reaction volume, and inhibitor concentrations ranged from 100 μM to […]; the final level of DMSO in reactions never exceeded 2%. Reactions were allowed to proceed for one hour at 25° C. After 1 hour, GST-tagged GRP1 (general receptor for phosphoinositides) PH domain fusion protein was added to a final concentration of 100 nM, and BODIPY-TMRI(1,3,4,5)P4 (Echelon) was also added to a final concentration of 5 nM. Final sample volumes were 25 μl with a final DMSO concentration of 0.8%. Assay Plates were read on Perkin-Elmer Envision plate readers with appropriate filters for Tamra [BODIPY-TMRI(1,3,4,5)P4]. Data obtained were used to calculate enzymatic activity and enzyme inhibition by inhibitor compounds.

Another assay has as its target PI3K gamma (Homo sapiens, UniProt P48736). Nature of the assay: PI3 Kinase Assay (PI3K gamma). To be noted: 1 h. As to the method: as §1
Another assay concerns the target T2, Flag-IKKβ (Homo sapiens, UniProt O14920).
T2 construct: made in house; host or cells: SF9 insect cells (baculovirus)
T2 sequence (O14920 1-756): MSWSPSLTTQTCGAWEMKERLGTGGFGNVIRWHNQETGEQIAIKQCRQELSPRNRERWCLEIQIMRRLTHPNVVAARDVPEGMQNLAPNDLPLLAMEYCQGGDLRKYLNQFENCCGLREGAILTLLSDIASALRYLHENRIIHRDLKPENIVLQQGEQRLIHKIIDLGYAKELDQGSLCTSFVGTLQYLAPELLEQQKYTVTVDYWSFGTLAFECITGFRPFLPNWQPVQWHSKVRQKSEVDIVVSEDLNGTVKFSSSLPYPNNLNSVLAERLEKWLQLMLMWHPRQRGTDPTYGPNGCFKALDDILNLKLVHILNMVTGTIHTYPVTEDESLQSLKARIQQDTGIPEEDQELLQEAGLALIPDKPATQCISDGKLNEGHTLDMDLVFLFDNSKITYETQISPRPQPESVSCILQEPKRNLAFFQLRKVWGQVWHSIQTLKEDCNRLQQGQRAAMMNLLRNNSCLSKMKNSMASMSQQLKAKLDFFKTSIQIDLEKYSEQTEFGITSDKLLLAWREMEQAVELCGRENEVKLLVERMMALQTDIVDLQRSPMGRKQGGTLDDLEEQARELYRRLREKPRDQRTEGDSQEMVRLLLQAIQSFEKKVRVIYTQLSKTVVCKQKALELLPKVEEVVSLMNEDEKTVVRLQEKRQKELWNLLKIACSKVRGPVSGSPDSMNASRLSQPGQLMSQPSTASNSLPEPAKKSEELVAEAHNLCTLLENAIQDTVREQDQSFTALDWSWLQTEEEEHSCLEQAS
Nature of the assay: IKK Kinase Assay (LANCE). The source says: Human IKKβ cDNA is amplified by reverse transcriptase-polymerase chain reaction from human placental RNA (CLONTECH) using primers that incorporated the FLAG-epitope at the C terminus of IKKβ. FLAG-IKKβ is inserted into the baculovirus expression plasmid pFASTBAC (Life Technologies). Following the manufacturer's protocol for the BAC-TO-BAC (Life Technologies) Baculovirus Expression System, recombinant baculoviruses expressing the IKKβ enzyme are made. Briefly, 9×10^5 SF9 cells per well of a 6-well plate are transfected with one μg of miniprep bacmid DNA using the CellFECTIN™ reagent. Virus is harvested 72 hours post transfection, and a viral titer is performed, after which a high titer viral stock (2×10^8 pfu/ml) is amplified by three to four rounds of infection. […]
Purified Flag-IKKβ enzyme (2 nM final concentration) is typically used in the kinase reaction buffer described above supplemented with 0.0025% Brij solution (Sigma) to help stabilize the enzyme. […] 25 μL of 20 mM EDTA is added to terminate the reactions and then 100 μL of detection mixture [0.25 nM Europium labeled anti-phospho-IκBα (prepared by Wallac) and 0.25 μg/mL final concentration streptavidin-APC, Wallac] is added 30 minutes before reading the plates in a Wallac VICTOR plate reader. […]
In general terms: TR-FRET usually uses a lanthanide donor and a delayed reading to cut background.

The target of assay [1] is T3, human PKCθ full length enzyme (Homo sapiens, UniProt Q04759).
T3 construct: human PKCθ full length enzyme; purchased Panvera P2996
T3 sequence (Q04759 whole entry): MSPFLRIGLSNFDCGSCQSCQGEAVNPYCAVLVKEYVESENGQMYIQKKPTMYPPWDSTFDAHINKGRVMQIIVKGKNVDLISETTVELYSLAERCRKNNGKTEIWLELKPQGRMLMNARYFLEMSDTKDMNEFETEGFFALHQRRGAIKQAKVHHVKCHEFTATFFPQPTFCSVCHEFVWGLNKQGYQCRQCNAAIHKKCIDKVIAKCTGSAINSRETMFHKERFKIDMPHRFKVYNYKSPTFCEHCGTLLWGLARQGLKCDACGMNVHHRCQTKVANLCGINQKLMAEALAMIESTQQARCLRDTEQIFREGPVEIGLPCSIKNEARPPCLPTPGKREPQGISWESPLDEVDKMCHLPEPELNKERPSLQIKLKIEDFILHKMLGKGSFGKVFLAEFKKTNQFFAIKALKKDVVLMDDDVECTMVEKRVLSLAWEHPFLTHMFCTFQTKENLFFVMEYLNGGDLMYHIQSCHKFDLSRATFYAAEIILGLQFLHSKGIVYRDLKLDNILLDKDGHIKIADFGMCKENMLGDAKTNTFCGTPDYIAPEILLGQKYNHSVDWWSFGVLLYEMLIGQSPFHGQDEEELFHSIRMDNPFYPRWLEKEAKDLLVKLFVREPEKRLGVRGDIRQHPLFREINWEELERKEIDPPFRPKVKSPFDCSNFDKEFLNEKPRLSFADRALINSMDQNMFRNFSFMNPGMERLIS
Nature of the assay: PKC Theta IMAP Assay. As to the method:
The materials used include the following: human PKCθ full length enzyme (Panvera Cat#P2996); substrate peptide: 5FAM-RFARKGSLRQKNV-OH (Molecular Devices, RP7032); ATP (Sigma Cat #A2383); DTT (Pierce, 20291); 5× kinase reaction buffer (Molecular Devices, R7209); 5× binding buffer A (Molecular Devices, R7282), 5× binding buffer B (Molecular Devices, R7209); IMAP Beads (Molecular Devices, R7284); and 384-well plates (Corning Costar, 3710).
The reaction buffer was prepared by diluting the 5× stock reaction buffer and adding DTT to obtain a concentration of 3.0 mM. The binding buffer was prepared by diluting the 5× binding buffer A. A master mix solution was prepared using a 90% dilution of the reaction buffer containing 2×ATP (12 uM) and 2× peptide (200 nm). Compounds were diluted in DMSO to 20× of the maximum concentration for the IC50 measurement. 27 μl of the master mix solution for each IC50 curve was added to the first column in a 384-well plate and 3 μl of 20× compound in DMSO was added to each well. The final concentration of compound was 2× and 10% DMSO. DMSO was added to the rest of the master mix to increase the concentration to 10%. 10 μl of the master mix containing 10% DMSO was added to the rest of the wells on the plate except the 2nd column. 20 μl was transferred from the first column to the 2nd column. […] FP was measured using Envision2100 (PerkinElmer Life Sciences). […]

Chain of PI3K alpha (P42336 whole entry, species assumed, the tested form may be a part): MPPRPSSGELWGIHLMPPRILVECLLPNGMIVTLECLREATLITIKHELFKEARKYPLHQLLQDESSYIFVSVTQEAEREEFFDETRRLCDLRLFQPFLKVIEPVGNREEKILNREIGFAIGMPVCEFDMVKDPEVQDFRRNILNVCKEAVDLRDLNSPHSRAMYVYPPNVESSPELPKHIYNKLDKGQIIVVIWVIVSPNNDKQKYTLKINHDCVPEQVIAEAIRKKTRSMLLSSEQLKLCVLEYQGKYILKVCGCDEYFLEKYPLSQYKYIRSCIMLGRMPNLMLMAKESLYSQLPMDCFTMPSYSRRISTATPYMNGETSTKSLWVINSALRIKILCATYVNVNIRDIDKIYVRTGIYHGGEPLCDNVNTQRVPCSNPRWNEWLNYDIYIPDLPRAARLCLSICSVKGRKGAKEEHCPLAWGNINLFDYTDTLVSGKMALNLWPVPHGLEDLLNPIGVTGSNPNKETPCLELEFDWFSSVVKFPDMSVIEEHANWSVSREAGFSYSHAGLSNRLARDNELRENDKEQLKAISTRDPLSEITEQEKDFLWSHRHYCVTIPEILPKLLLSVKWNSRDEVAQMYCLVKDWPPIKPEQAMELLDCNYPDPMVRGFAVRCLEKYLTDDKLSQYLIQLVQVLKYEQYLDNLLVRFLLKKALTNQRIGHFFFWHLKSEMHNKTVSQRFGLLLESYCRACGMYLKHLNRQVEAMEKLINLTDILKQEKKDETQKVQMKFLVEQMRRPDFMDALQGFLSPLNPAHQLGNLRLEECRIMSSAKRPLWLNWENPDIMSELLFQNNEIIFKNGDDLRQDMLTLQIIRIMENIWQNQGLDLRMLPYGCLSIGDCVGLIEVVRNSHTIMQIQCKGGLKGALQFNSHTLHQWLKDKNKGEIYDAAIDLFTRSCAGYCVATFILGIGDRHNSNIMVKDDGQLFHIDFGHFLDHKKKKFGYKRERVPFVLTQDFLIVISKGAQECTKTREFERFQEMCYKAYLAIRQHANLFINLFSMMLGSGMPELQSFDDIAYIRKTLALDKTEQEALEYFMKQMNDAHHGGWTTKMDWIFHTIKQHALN
Chain of PI3K alpha (P27986 whole entry partner, species assumed, the tested form may be a part): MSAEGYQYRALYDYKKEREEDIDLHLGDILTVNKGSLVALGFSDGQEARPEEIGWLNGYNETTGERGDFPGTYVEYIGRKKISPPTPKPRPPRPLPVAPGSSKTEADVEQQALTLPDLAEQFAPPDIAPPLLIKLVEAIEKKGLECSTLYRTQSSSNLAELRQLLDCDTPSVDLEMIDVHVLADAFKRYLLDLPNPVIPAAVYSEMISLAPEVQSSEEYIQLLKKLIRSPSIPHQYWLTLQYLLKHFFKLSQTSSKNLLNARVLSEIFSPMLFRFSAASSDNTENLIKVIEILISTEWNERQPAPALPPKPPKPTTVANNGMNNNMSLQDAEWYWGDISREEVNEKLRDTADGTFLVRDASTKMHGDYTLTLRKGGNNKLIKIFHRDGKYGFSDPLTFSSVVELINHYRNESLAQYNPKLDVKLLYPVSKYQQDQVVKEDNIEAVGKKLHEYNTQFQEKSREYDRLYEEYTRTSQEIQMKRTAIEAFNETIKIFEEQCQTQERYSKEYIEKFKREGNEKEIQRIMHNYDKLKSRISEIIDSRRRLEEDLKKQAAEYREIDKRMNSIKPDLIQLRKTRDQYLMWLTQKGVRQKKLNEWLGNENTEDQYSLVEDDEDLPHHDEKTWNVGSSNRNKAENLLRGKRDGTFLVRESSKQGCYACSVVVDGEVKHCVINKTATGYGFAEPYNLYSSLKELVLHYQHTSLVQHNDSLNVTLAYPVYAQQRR
Chain of PI3K gamma (P48736 whole entry, species assumed): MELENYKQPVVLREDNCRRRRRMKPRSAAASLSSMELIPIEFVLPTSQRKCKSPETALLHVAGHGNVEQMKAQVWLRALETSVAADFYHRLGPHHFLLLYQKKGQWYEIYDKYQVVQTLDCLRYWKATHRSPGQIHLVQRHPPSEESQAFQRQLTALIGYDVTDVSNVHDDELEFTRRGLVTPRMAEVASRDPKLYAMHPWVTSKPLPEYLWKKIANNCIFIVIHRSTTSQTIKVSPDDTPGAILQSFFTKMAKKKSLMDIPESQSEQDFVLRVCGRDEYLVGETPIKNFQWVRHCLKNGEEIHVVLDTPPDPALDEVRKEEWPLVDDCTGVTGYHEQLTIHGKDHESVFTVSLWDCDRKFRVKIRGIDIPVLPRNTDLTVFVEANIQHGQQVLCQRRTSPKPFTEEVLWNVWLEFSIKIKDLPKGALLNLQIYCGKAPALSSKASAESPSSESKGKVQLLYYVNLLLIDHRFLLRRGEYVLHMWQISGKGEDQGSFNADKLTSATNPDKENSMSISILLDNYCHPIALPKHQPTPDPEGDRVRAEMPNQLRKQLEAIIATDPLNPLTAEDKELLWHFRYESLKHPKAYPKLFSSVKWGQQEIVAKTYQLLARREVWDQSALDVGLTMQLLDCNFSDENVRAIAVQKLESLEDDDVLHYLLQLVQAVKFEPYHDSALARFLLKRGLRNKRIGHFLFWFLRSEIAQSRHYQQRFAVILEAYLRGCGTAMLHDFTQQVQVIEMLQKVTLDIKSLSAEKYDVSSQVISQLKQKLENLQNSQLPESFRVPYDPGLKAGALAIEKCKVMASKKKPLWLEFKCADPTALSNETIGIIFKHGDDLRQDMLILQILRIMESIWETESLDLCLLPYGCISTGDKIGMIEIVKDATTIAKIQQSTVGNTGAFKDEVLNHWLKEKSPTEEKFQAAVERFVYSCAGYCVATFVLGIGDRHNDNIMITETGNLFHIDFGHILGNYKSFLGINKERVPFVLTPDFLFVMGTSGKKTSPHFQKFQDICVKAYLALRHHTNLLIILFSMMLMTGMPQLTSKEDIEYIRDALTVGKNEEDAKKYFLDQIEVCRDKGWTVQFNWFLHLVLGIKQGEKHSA

For the compound `c1ccc2c(Oc3cncnc3)ncnc2c1` [Example 31, 4-(Pyrimidin-5-yloxy)quinazoline], on human TOR (FLAG-TOR), the inhibition at 10 µM was determined as 12%. Further, the inhibition at 30 µM turned out to be 33% against PI3K alpha and 53% at PI3K gamma.

In the case of `Cc1noc(C)c1Oc1ncnc2ccccc12` [Example 26, 3,5-Dimethyl-4-(quinazolin-4-yloxy)isoxazole], the inhibition at 30 µM against PI3K alpha is 56%; against Flag-IKKβ, 51%; on PI3K gamma, 12%. The compound also displayed an IC50 in assay [1] of 25.9 µM.

By inhibition is commonly meant the drop in the measured response relative to a control, in per cent. By IC50 is commonly meant the concentration needed to halve the response being measured.
